Assay results taken from EP4707275A1, “NOVEL COMPOUND COMPRISING N-METHYLPIPERAZINE ETHANOL CARBAMATE STRUCTURE AND USE THEREOF” (Korea Institute of Radiological & Medical Sciences, priority 2023, dated 2024).

Key:
[1] = system: radiation-induced pulmonary fibrosis; assay: Inhibitory effect on radiation-induced pulmonary fibrosis in mice (Micro-CT, H&E and Masson's Trichrome staining); format: in vivo, C57BL/6 mice; settings: 2 weeks after radiation exposure (SBRT 90 Gy), oral, nintedanib 60 mg/kg once daily, vs untreated group
Procedure: One hour before stereotactic body radiation therapy (SBRT; 90 Gy, 4 mm collimator), DCTP and nintedanib, an FDA-approved drug known to inhibit pulmonary fibrosis, were orally administered to seven-week-old male C57BL/6 mice. The degree of pulmonary fibrosis and the inhibitory effect on radiation-induced lung injury were observed two weeks after radiation exposure. The DCTP drug was administered at a dose of 30 mg/kg, and nintedanib was administered once daily (o.d.) at a dose of 60 mg/kg. In addition, to analyze the degree of inflammatory response and the degree of fibrosis two weeks after radiation exposure, H&E staining and Masson's Trichrome staining were performed, and the results are shown in FIG. 5. One hour prior to stereotactic body radiation therapy (SBRT; 90 Gy, 4 mm collimator), PXDP and nintedanib, an FDA-approved drug known to inhibit pulmonary fibrosis, were orally administered to seven-week-old male C57BL/6 mice. The degree of pulmonary fibrosis and the inhibitory effect on radiation-induced lung injury were observed two weeks after radiation exposure. The PXDP drug was administered at a dose of 100 mg/kg, and nintedanib was administered once daily (o.d.) at a dose of 60 mg/kg. To analyze the degree of inflammatory response and the degree of fibrosis 2 weeks after radiation exposure, H&E staining and Masson's Trichrome staining were performed, and the results are shown in FIG. 11.

[2] = system: idiopathic pulmonary fibrosis induced by bleomycin; assay: Inhibitory effect on idiopathic pulmonary fibrosis induced by bleomycin in mice (Micro-CT, H&E and Masson's Trichrome staining, survival); format: in vivo, C57BL/6 mice; settings: oral once daily for two weeks from day 14, nintedanib 60 mg/kg, vs untreated group; for degree of fibrosis (Micro-CT imaging): 4 weeks after bleomycin 1.5 U/kg; for degree of inflammation and fibrosis (H&E and Masson's Trichrome staining) / survival rate: bleomycin 1.5 U/kg; for survival rate: Example 5, FIG. 9
Procedure: Each drug was administered starting 14 days after the administration of bleomycin. The drug was orally administered at a dose of 20 mg/kg once daily for two weeks (a total of 13 administrations). The control drug, nintedanib, was administered at a dose of 60 mg/kg, and the co-administration group was orally administered nintedanib (60 mg/kg) together with DCTP (20 mg/kg) once daily for two weeks (a total of 13 administrations).
The results of H&E and Masson's Trichrome staining performed to evaluate the degree of inflammation and fibrosis are shown in FIG. 3.
Each drug was administered starting 14 days after the administration of bleomycin. Nintedanib and PXDP were each orally administered at a dose of 60 mg/kg once daily for two weeks (a total of 13 administrations), and the group treated with the combination was orally administered nintedanib (60 mg/kg) together with PXDP (60 mg/kg) once daily for two weeks (a total of 13 administrations).
The results of H&E and Masson's Trichrome staining performed to evaluate the degree of inflammation and fibrosis are shown in FIG. 8.
In addition, the mouse survival rate was compared in FIG. 9.

[3] = Example 3, FIG. 5, DCTP 30 mg/kg
[4] = Example 6, FIG. 10, PXDP 100 mg/kg
[5] = Example 6, FIG. 11, PXDP 100 mg/kg
[6] = Example 5, FIG. 7, PXDP 60 mg/kg
[7] = Example 5, FIG. 8, PXDP 60 mg/kg

Compound	degree of inflammation and degree of fibrosis (H&E and Masson's Trichrome staining) [1, 3]	degree of fibrosis (Micro-CT imaging) [1, 4]	degree of fibrosis (Micro-CT imaging) ([1]; Example 6, FIG. 10, PXDP 100 mg/kg, listed as PXPD)	degree of inflammation and degree of fibrosis (H&E and Masson's Trichrome staining) [1, 5]	degree of fibrosis (Micro-CT imaging) [2, 6]	degree of inflammation and fibrosis (H&E and Masson's Trichrome staining) [2, 7]	survival rate ([2]; PXDP 60 mg/kg)	degree of fibrosis (Micro-CT imaging) ([1]; Example 3, FIG. 4, DCTP 30 mg/kg)	degree of fibrosis (Micro-CT imaging) ([2]; Example 2, FIG. 2, DCTP 20 mg/kg)	degree of inflammation and fibrosis (H&E and Masson's Trichrome staining) ([2]; Example 2, FIG. 3, DCTP 20 mg/kg)
COc1cc2ncnc(N(C(=O)OCCN3CCN(C)CC3)c3ccc(F)c(Cl)c3)c2cc1NC(=O)/C=C/CN1CCCCC1 [DCTP, 2-(4-methylpiperazin-1-yl)ethyl (E)-(3-chloro-4-fluorophenyl)(7-methoxy-6-(4-(piperidin-1-yl)but-2-enamido)quinazolin-4-yl)carbamate]	reduction in fibrosis and inflammation in the lungs									
CN1CCN(CCOC(=O)N(Cc2ccc(C(F)(F)F)nc2)c2ccc(Cc3c[nH]c4ncc(Cl)cc34)cn2)CC1 [PXDP, 2-(4-methylpiperazin-1-yl)ethyl (5-((5-chloro-1H-pyrrolo[2,3-b]pyridin-3-yl)methyl)pyridin-2-yl)((6-(trifluoromethyl)pyridin-3-yl)methyl)carbamate]		reduction in the degree of fibrosis	superior to that of nintedanib	alleviation of fibrosis and inflammation in the lungs	reduction in the degree of fibrosis	alleviation of pulmonary fibrosis and inflammation	survival rate increased			
COC(=O)c1ccc2c(c1)NC(=O)/C2=C(\Nc1ccc(N(C)C(=O)CN2CCN(C)CC2)cc1)c1ccccc1 [nintedanib]	reduction in fibrosis and inflammation in the lungs	reduction in the degree of fibrosis		alleviation of fibrosis and inflammation in the lungs	reduction in the degree of fibrosis	alleviation of pulmonary fibrosis and inflammation	survival rate increased	reduction in the degree of fibrosis	reduction in the degree of fibrosis	alleviation of pulmonary fibrosis and inflammation
